Where two headings read alike, the source gives them in different places.
Molecular target: T1, androgen receptor (AR) (Homo sapiens, UniProt P10275)
T1 sequence (P10275 1-920): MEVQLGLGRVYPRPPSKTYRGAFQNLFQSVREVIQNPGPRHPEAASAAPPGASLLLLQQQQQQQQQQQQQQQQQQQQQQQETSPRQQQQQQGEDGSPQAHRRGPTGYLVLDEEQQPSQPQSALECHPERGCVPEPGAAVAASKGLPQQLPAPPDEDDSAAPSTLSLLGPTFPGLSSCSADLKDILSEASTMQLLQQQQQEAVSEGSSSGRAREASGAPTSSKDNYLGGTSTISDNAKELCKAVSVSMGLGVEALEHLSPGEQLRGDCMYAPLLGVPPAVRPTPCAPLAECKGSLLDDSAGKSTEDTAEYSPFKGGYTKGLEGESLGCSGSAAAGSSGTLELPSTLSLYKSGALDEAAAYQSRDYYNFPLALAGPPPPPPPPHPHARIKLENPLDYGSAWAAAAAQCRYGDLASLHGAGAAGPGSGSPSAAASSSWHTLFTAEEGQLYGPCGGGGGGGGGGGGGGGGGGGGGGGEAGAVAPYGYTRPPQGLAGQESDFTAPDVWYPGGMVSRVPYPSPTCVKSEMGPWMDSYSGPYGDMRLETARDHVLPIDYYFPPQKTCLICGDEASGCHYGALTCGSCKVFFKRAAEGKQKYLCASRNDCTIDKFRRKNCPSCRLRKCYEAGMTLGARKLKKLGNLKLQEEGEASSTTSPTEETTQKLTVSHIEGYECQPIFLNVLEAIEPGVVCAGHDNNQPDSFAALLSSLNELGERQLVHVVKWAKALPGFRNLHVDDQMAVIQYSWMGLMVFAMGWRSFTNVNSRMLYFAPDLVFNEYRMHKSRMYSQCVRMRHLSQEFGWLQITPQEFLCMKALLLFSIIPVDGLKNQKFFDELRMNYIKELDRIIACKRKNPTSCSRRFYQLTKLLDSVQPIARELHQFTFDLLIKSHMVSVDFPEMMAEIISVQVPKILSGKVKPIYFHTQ
Experiment: Degradation of androgen receptor (AR) protein in VCaP cells by ELISA
Type: cell-based
Details: for Dmax: VCaP

[1] = AR degradation, VCaP cells, 16 h, ELISA, Table 3-1, read-out: DC50
[2] = AR degradation, VCaP cells, 16 h, ELISA, Table 3-1, read-out: Dmax (%)

| DC50 [1] | Dmax [2] | Compound | further results |
| --- | --- | --- | --- |
| < 10 nM | > 80% | N#Cc1ccc(O[C@H]2CC[C@H](NC(=O)c3cnc(N4CCC(N5CCC6(CC5)CN(c5cc7c(cc5F)C(=O)N(C5CCC(=O)NC5=O)C7=O)C6)CC4)cn3)CC2)cc1Cl (some centres unmarked) [Compound 287, N-((1r,4r)-4-(3-chloro-4-cyanophenoxy)cyclohexyl)-5-(4-(2-(2-(2,6-dioxopiperidin-3-yl)-6-fluoro-1,3-dioxoisoindolin-5-yl)-2,7-diazaspiro[3.5]nonan-7-yl)piperidin-1-yl)pyrazine-2-carboxamide] |  |
| < 10 nM | 60 to 80% | CC1(C)[C@H](Oc2ccc(C#N)c(Cl)c2)C(C)(C)[C@H]1N1Cc2nc(C#CC3CN(C4CN(c5cc6c(cc5F)C(=O)N(C5CCC(=O)NC5=O)C6=O)C4)C3)ccc2C1=O (some centres unmarked) [Compound 322] |  |
| < 10 nM | > 80% | CC1(C)[C@H](Oc2ccc(C#N)c(Cl)c2)C(C)(C)[C@H]1N1Cc2nc(C#C[C@H]3CC[C@H](N4CCN(c5ccc6c(c5)C(=O)N(C5CCC(=O)NC5=O)C6=O)CC4)CC3)ccc2C1=O (some centres unmarked) [Compound 325] |  |
| < 10 nM | > 80% | CC1(C)[C@H](Oc2ccc(C#N)c(Cl)c2)C(C)(C)[C@H]1N1Cc2nc(C#CC3CCC(N4CC5CN(c6cc7c(cc6F)C(=O)N(C6CCC(=O)NC6=O)C7=O)CC5C4)CC3)ccc2C1=O (some centres unmarked) [Compound 340] |  |
| 10 to 100 nM | 60 to 80% | CC1(C)[C@H](Oc2ccc(C#N)c(Cl)c2)C(C)(C)[C@H]1N1Cc2nc(C#CC3CCC(N4CC5(CN(c6cc7c(cc6F)C(=O)N(C6CCC(=O)NC6=O)C7=O)C5)C4)CC3)ccc2C1=O (some centres unmarked) [Compound 341] |  |
| > 300 nM | 40 to 60% | CC1(C)[C@H](Oc2ccc(C#N)c(Cl)c2)C(C)(C)[C@H]1N1Cc2nc(C#CC3CCC(N4CC5CC4CN5c4cc5c(cc4F)C(=O)N(C4CCC(=O)NC4=O)C5=O)CC3)ccc2C1=O (some centres unmarked) [Compound 343] |  |
| < 10 nM | > 80% | CC1(C)[C@H](Oc2ccc(C#N)c(Cl)c2)C(C)(C)[C@H]1N1Cc2nc(C#C[C@H]3C[C@H](N4CCN(c5ccc6c(c5)C(=O)N(C5CCC(=O)NC5=O)C6=O)CC4)C3)ccc2C1=O (some centres unmarked) [Compound 355] |  |
| < 10 nM | > 80% | CC1(C)[C@H](Oc2ccc(C#N)c(Cl)c2)C(C)(C)[C@H]1N1Cc2nc(C#C[C@H]3C[C@H](N4CCN(c5cc6c(cc5F)C(=O)N(C5CCC(=O)NC5=O)C6=O)CC4)C3)ccc2C1=O (some centres unmarked) [Compound 357] |  |

Continued, compound first:

| Compound | DC50 [1] | Dmax [2] | further results |
| --- | --- | --- | --- |
| N#Cc1ccc(O[C@H]2CC[C@H](NC(=O)c3cnc(N4CCC(CN5CCC6(CC5)CN(c5ccc7c(c5)C(=O)N(C5CCC(=O)NC5=O)C7=O)C6)CC4)nn3)CC2)cc1Cl (some centres unmarked) [Compound 279, N-((1r,4r)-4-(3-chloro-4-cyanophenoxy)cyclohexyl)-3-(4-((2-(2-(2,6-dioxopiperidin-3-yl)-1,3-dioxoisoindolin-5-yl)-2,7-diazaspiro[3.5]nonane-7-yl)methyl)piperidin-1-yl)-1,2,4-triazine-6-formamide] |  |  | DC50: < 10 nM; Dmax: > 80% |
| N#Cc1ccc(O[C@H]2CC[C@H](NC(=O)c3cnc(N4CCC(N5CCC6(CC5)CN(c5ccc7c(c5)C(=O)N(C5CCC(=O)NC5=O)C7=O)C6)CC4)cn3)CC2)cc1Cl (some centres unmarked) [Compound 280, N-((1r,4r)-4-(3-chloro-4-cyanophenoxy)cyclohexyl)-5-(4-(2-(2-(2,6-dioxopiperidin-3-yl)-1,3-dioxoisoindolin-5-yl)-2,7-diazaspiro[3.5]nonan-7-yl)piperidin-1-yl)pyrazine-2-carboxamide] | 10 to 100 nM | > 80% |  |
| N#Cc1ccc(O[C@H]2CC[C@H](NC(=O)c3ccc(N4CCC(N5CCC6(CC5)CN(c5ccc7c(c5)C(=O)N(C5CCC(=O)NC5=O)C7=O)C6)CC4)nn3)CC2)cc1Cl (some centres unmarked) [Compound 281, N-((1r,4r)-4-(3-chloro-4-cyanophenoxy)cyclohexyl)-6-(4-(2-(2-(2,6-dioxopiperidin-3-yl)-1,3-dioxoisoindolin-5-yl)-2,7-diazaspiro[3.5]nonan-7-yl)piperidin-1-yl)pyridazine-3-formamide] | < 10 nM | > 80% |  |
| N#Cc1ccc(O[C@H]2CC[C@H](NC(=O)c3ccc(N4CC5(CCN(CC6CCN(c7ccc8c(c7)C(=O)N(C7CCC(=O)NC7=O)C8=O)CC6)CC5)C4)nn3)CC2)cc1Cl (some centres unmarked) [Compound 282, N-((1r,4r)-4-(3-chloro-4-cyanophenoxy)cyclohexyl)-6-(7-((1-(2-(2,6-dioxopiperidin-3-yl)-1,3-dioxoisoindolin-5-yl)piperidine-4-yl)methyl)-2,7-diazaspiro[3.5]nonan-2-yl)pyridazine-3-formamide] | < 10 nM | > 80% |  |
| N#Cc1ccc(O[C@H]2CC[C@H](NC(=O)c3cnc(N4CC5(CCN(CC6CCN(c7ccc8c(c7)C(=O)N(C7CCC(=O)NC7=O)C8=O)CC6)CC5)C4)cn3)CC2)cc1Cl (some centres unmarked) [Compound 283, N-((1r,4r)-4-(3-chloro-4-cyanophenoxy)cyclohexyl)-6-(7-((1-(2-(2,6-dioxopiperidin-3-yl)-1,3-dioxoisoindolin-5-yl)piperidine-4-yl)methyl)-2,7-diazaspiro[3.5]nonan-2-yl)pyrazine-3-formamide] | < 10 nM | > 80% |  |
| N#Cc1ccc(OC2CCC(NC(=O)c3ccc(N4CCC5(CC4)CN(CC4CCN(c6cc7c(cc6F)C(=O)N(C6CCC(=O)NC6=O)C7=O)CC4)C5)nn3)CC2)cc1C(F)(F)F (centres unmarked) [Compound 285, N-((1r,4r) 4-(4-cyano-3-(trifluoromethyl)phenoxy)cyclohexyl)-6-(2-((1-(2,6-dioxopiperidin-3-yl)-6-fluoro-1,3-dioxoisoindolin-5-yl)piperidine-4-yl)methyl)-2,7-diazaspiro [3.5] nonan-7-yl)pyridazine-3-formamide] |  |  | Dmax (%): ++++ (key: A: >80%; B: 79%-50%; C: 49%-25%; D: <25%); DC50 (read-out: DC50): < 10 nM |
| N#Cc1ccc(O[C@H]2CC[C@H](NC(=O)c3ccc(N4CCN(C[C@@H]5[C@H]6CN(c7cc8c(cc7F)C(=O)N(C7CCC(=O)NC7=O)C8=O)C[C@@H]56)CC4)cn3)CC2)cc1Cl (some centres unmarked) [Compound 286] | 10 to 100 nM | 60 to 80% |  |
| CC1(C)C(Oc2ccc(C#N)c(Cl)c2)C(C)(C)C1N1Cc2nc(C#CC3CCC(N4CC5CN(c6ccc7c(c6)C(=O)N([C@@H]6CCC(=O)NC6=O)C7=O)CC5C4)CC3)ccc2C1=O (some centres unmarked) [Compound 349, 2-Chloro-4-((1r,3r)-3-(2-((4-(5-(2-(2,6-dioxopiperidin-3-yl)-1,3-dioxoisoindolin-5-yl)hexahydropyrrolo[3,4-c]pyrrol-2(1H)-yl)cyclohexyl)ethynyl)-5-oxo-5,7-dihydro-6H-pyrrolo[3,4-b]pyridin-6-yl)-2,2,4,4-tetramethylcyclobutoxy)benzonitrile] |  |  | Dmax (%) (AR degradation, VCaP cells, 16 h, ELISA, Table 3-1): ++++ (>80%); DC50 (read-out: DC50): 10 to 100 nM |
| CC1(C)[C@H](Oc2ccc(C#N)c(Cl)c2)C(C)(C)[C@H]1N1Cc2nc(C#CC3CCC(N4CC5(CN(c6ccc7c(c6)C(=O)N([C@@H]6CCC(=O)NC6=O)C7=O)C5)C4)CC3)ccc2C1=O (some centres unmarked) [Compound 350, 2-Chloro-4-((1r,3r)-3-(2-((4-(6-(2-(2,6-dioxopiperidin-3-yl)-1,3-dioxoisoindolin-5-yl)-2,6-diazaspiro[3.3]heptane-2-yl)cyclohexyl)ethynyl)-5-oxo-5,7-dihydro-6H-pyrrolo[3,4-b]pyridin-6-yl)-2,2,4,4-tetramethylcyclobutoxy) benzonitrile] |  |  | Dmax (%): ++ (key: ++++: >80%; +++: 80%-60%; ++: 60%-40%; +: <40%); DC50 (read-out: DC50): 100 to 300 nM |
| CC1(C)[C@H](Oc2ccc(C#N)c(Cl)c2)C(C)(C)[C@H]1N1Cc2nc(C#CC3CCC(N4CC5(CN(c6ccc7c(c6)C(=O)N([C@@H]6CCC(=O)NC6=O)C7=O)C5)C4)CC3)ccc2C1=O (some centres unmarked) [Compound 351, 2-Chloro-4-((1r,3r)-3-(2-((4-(6-(2-(2,6-dioxopiperidin-3-yl)-1,3-dioxoisoindolin-5-yl)-2,6-diazaspiro[3.3]heptane-2-yl)cyclohexyl)ethynyl)-5-oxo-5,7-dihydro-6H-pyrrolo[3,4-b]pyridin-6-yl)-2,2,4,4-tetramethylcyclobutoxy) benzonitrile] |  |  | Dmax (%): ++++ (key: A: >80%; B: 79%-50%; C: 49%-25%; D: <25%); DC50 (read-out: DC50): < 10 nM |
| CC1(C)[C@H](Oc2ccc(C#N)c(Cl)c2)C(C)(C)[C@H]1N1Cc2nc(C#CC3CC(N4CC5CN(c6ccc7c(c6)C(=O)N(C6CCC(=O)NC6=O)C7=O)CC5C4)C3)ccc2C1=O (some centres unmarked) [Compound 358, 2-chloro-4-((1r,3r)-3-(2-((3-(5-(2-(2,6-dioxopiperidin-3-yl)-1,3-dioxoisoindolin-5-yl)hexahydropyrrolo[3,4-c]pyrrol-2(1H)-yl)cyclobutyl)ethynyl)-5-oxo-5,7-dihydro-6H-pyrrolo[3,4-b]pyridin-6-yl)-2,2,4,4-tetramethylcyclobutoxy)benzonitrile] | 10 to 100 nM | 60 to 80% |  |

Reference: patent US20230091225A1, “Bifunctional chimeric heterocyclic compounds for targeted degradation of androgen receptors and use thereof” (HINOVA PHARMACEUTICALS INC., priority 2019, published 2023)
